Test results published in patent US20100303934A1, “METHODS AND COMPOSITIONS FOR NERVE REGENERATION” (Oregon Health & Science University, priority 2004, published 2010).

Key:
[1] = tested on: SH-SY5Y human neuroblastoma cells; test: Neurite elongation (neurite outgrowth length) assay in SH-SY5Y cells in the presence of NGF; format: cell-based; conditions: for Activity in the neurite elongation assay (FIG. 17): tested at 1 μm, in the presence of NGF; for Process elongation in micrographs (FIGS. 3-10): SH-SY5Y cells at 168 hours, with NGF
Protocol: SH-SY5Y human neuroblastoma cells were maintained in DMEM medium (GIBCO) supplemented with 10% fetal calf serum (SIGMA), 50 IU/mL penicillin, and […] streptomycin (GIBCO) at 37° C. in 7% CO2. Cells were plated in six-well plates at 1×10^6 cells/well and treated with […] aphidicolin (SIGMA). At five days, cells were washed, treated with nerve growth factor (NGF) (Boehringer Mannheim, Indianapolis, Ind.) at 10 ng/mL (to induce process outgrowth) in the presence or absence of the Centella asiatica extract and extract fractions (100 μg/mL). […] All experiments were run in duplicate wells and repeated at least twice for reproducibility.
Neurite lengths were measured on photographic prints using a SummaSketch III digitizing tablet connected with Bioquant Classic 95 software (R&M Biometrics, Nashville, Term.); only those processes greater than two times the cell body length were measured. […] Histograms were compared using a Mann-Whitney U test, which makes no assumptions about the shape of the distribution.

[2] = tested on: SHSY5Y neuroblastoma cells; test: Protection against hydrogen peroxide induced toxicity (CellTiter Blue / LDH); format: cell-based, human; conditions: positive control, concentration not given; H2O2 125 to 500 μM
Protocol: SHSY5Y neuroblastoma cells were grown in DMEM/F12 medium (from Gibco) containing 10% fetal calf serum (FCS), 100 ug/ml streptomycin sulphate, 100 U/ml penicillin G in a humidified air/5% CO2 chamber at 37 C. The following method was followed: Day1. Plate SHSY5Y cells on 24-well plate at 100,000/well Day4. Remove old medium, add fresh medium with 10 ng/ml NGF. Day5. Add GK, GKW or EGCG (epigallocatechin gallate; a known antioxidant), overnight. Day6. Remove old medium (containing test substances), add fresh medium (2% FCS) with 10 ng/ml NGF. Treat cells with or without H2O2, for 2-3 hours. Remove medium and H2O2, wash 1× with fresh medium with NGF, add fresh medium (2% FCS) with NGF again, incubate overnight. Day7. Harvest supernatant for LDH assay. Add fresh medium and CellTiter Blue reagent (from Promega, containing resazurin) into each well, incubate for 2 hours, read fluorescence under the Fluorometer. @ 560 nm EX/590 nm EM, cut off 590 nm.

## C[C@H]1[C@H](C)CC[C@]2(C(=O)O)CC[C@]3(C)C(=CC[C@@H]4[C@@]5(C)C[C@@H](O)[C@H](O)[C@@](C)(CO)[C@@H]5[C@H](O)C[C@]43C)[C@H]12 [madecassic acid]
[1]
  Activity in the neurite elongation assay (FIG. 17): active

## O=C(O[C@@H]1Cc2c(O)cc(O)cc2O[C@@H]1c1cc(O)c(O)c(O)c1)c1cc(O)c(O)c(O)c1 [EGCG, epigallocatechin gallate]
[2]
  Protection against H2O2 toxicity: protective

## madecassoside
[1]
  Activity in the neurite elongation assay (FIG. 17): not active

## C[C@H]1[C@H](C)CC[C@]2(C(=O)O)CC[C@]3(C)C(=CC[C@@H]4[C@@]5(C)C[C@@H](O)[C@H](O)[C@@](C)(CO)[C@@H]5CC[C@]43C)[C@H]12 [asiatic acid]
[1]; FIG. 10, 168 hours
  Activity of AA in the presence of the MEK inhibitor PD 098059: prevented
[1]
  Process elongation in micrographs (FIGS. 3-10): markedly increased
  Activity in the neurite elongation assay (FIG. 17): active
[1]; concentration of 104 (0.5 μg/mL)
  Stimulation of neurite outgrowth elongation: considerable stimulation

## C=CC[C@@H]1/C=C(\C)C[C@H](C)C[C@H](OC)[C@H]2O[C@@](O)(C(=O)C(=O)N3CCCC[C@H]3C(=O)O[C@H](/C(C)=C/[C@@H]3CC[C@@H](O)[C@H](OC)C3)[C@H](C)[C@@H](O)CC1=O)[C@H](C)C[C@@H]2OC [FK506, reference compound]
[1]; absence of NGF
  Neurite elongation activity in the absence of NGF: no activity

B1: NGF: nerve growth factor (Boehringer Mannheim), 10 ng/mL, used to induce process outgrowth (protein, UniProt P01139 122-241, looked up)
Beta-nerve growth factor: SSTHPVFHMGEFSVCDSVSVWVGDKTTATDIKGKEVTVLAEVNINNSVFRQYFFETKCRASNPVESGCRGIDSKHWNSYCTTTHTFVKALTTDEKQAAWRFIRIDTACVCVLSRKATRRG
modifications: Beta-nerve growth factor
notes: nerve growth factor (Boehringer Mannheim), 10 ng/mL, used to induce process outgrowth
[1]
  Process elongation in micrographs (FIGS. 3-10): demonstrate process elongation
[1]; test substance 100 μg/mL, in the presence of NGF (10 ng/mL), 168 h
  Mean neurite length (μm) at 168 h: 115 μm
